Here are results for 1 compound from patent publication US7557144B1, “Modulation of protein expression using carbocyclic aryl alkenoic acid derivatives” (The Johns Hopkins University, priority 2000, dated 2009).

In data set [1] the test system is Hsp90. The experiment in a line: Hsp90 immunoblot of IB3-1 lysates. Conditions: IB3-1 cells, increasing concentrations of 4-PBA. Format: cell-based, human. On the procedure: (§1) 3. Immunoblot analysis. Whole cell lysates were prepared by solubilization with 2% SDS at 95° C. Protein concentration in the lysates was determined using the Bio-Rad DC assay reagents with bovine plasma g-globulin as a standard (Bio-Rad Laboratories, Hercules, Calif.). Equal amounts of protein was resolved on 5, 7, 8, or 9% SDS-polyacrylamide gels. Proteins were transferred to nitrocellulose, and immunodetection was performed as previously described (25). Nonspecific binding was blocked by incubation of the nitrocellulose with 2% gelatin or 10% nonfat day milk. Primary antisera and secondary antibodies were applied in buffer containing 0.4% BSA overnight at 4° C. and for 1 h at room temperature, respectively. Detection of immunoreactivity was performed with the enhanced chemiluminescence reagent (ECL, Amer-sham) and fluorography. Recombinant bovine Hsc70 ([…]) was purchased from Stressgen Biotechnologies for use in constructing a standard curve of Hsc70 immunoreactivity. Immunoblots containing the bovine Hsc70 were probed with the Hsc70-specific polyclonal antiserum.
Whether 4-PBA would regulate expression of a number of other molecular chaperones in IB3-1 cells (FIG. 2) was assessed next. […] Hsp90 is required for correct folding and function of a number of cellular proteins (16). […] Hsp70 (Hsp72) expression is induced by heat shock and the presence of denatured proteins within the eukaryotic cell (16). In Escherichia coli, the Hsp70 homologue DnaK and the Hsp40 homologue DnaJ act to promote protein folding (16). Hdj2 is the member of the Hsp40 family that specifically interacts with and regulates the ATPase activity of Hsc70. Hdj2 also interacts with CFTR during CFTR translation (26).
FIGS. 2A-2E are more specifically explained as follows. […]
FIGS. 5A-C are explained in more detail as follows. […] Cellular homogenates were prepared in 2% SDS as described in METHODS, and 5 μg of total cellular protein were analyzed by immunoblot for Hsc70 using rabbit polyclonal antiserum, Hsp90, Hsp70, Hsp40 as described above under General Comments. […]
Background: Immunoblotting shows a protein as a band on a membrane.

Data set [2] concerns CFTR. Conditions: IB3-1 cells; previously shown (ref. 30); cited from earlier work.
Data set [3] has as its system ΔF508-CFTR/Hsc70 complex. The experiment in a line: Immunoprecipitation of Hsc70 and coimmunoprecipitation of CFTR from treated IB3-1 cells. Format: cell-based, human. Conditions: 2 days.
Data set [4] concerns Hsc70 mRNA. As to the kind of experiment: RNase protection assay of Hsc70 mRNA in IB3-1 cells. Format: cell-based, human. An excerpt:
4. RNase protection. An Hsc70-specific probe for RNase protec-tion was constructed by isolation a 500-bp EcoR I fragment from American Type Culture Collection (ATCC) plasmid 77659 (ATCC, Manassas, Va.) and ligating this fragment into the EcoR I site of pSK(2) (Bluescript, Stratagene, La Jolla, Calif.). The resulting plasmid was sequenced in the Genetics Core Facility at the Johns Hopkins Hospital and found to be identical to sequences in exons 8 and 9 of the human Hsc70 sequence, with sequencing using the T3 primer and T7 primer leading to sense and antisense sequence, respectively. Hybridization probes were synthesized using a Maxiscript T7 kit (Ambion, Austin, Tex.) and [α^32 P]UTP (Amersham or DuPont NEN, Boston, Mass.) according to the Maxiscript protocol. Templates for internal control hybridizations, pTRI-18S and pTRI-cyclophilin A, were purchased from Ambion, and probes were similarly synthesized using the Maxiscript T7 kit. Probes were isolated by acid phenol-chloroform (Ambion) extraction, separated from unincorporated nucleotide by gel filtration (Sephadex G25 RNAspin column, Boehringer-Mannheim), and ethanol-acetate precipitated before resuspension in hybridization buffer. The concentration of radioactivity in the synthesized probes was determined by liquid scintillation.
RNase protection experiments were performed using the Direct Protect RNase protection assay kit (Ambion) according to the manufacturer's protocol. IB3-1 cell lysates were pre-pared in Direct Protect lysis buffer according to the manufacturer's protocol after incubation under the appropriate conditions for 48 h. Probe (50-70 and 5-10 thousands of counts/min for Hsc70 and control, respectively) and cellular RNA were hybridized overnight at 37° C. and digested with RNase cocktail. Protected fragments were resolved by electrophoresis on 5% acrylamide-8 M urea gels and detected by fluorography. Hsc70 mRNA concentration is expressed relative to control (18S or cyclophilin A) hybridization by densitometry (see Densitometric analysis). Results for hybridization of Hsc70 mRNA relative to the two control species were similar and were therefore grouped for data analysis.
FIGS. 3A-B are explained in more detailed as follows. Dose-dependent downregulation of Hsc70 mRNA expression by 4-PBA. A: IB3-1 cells were treated as for FIGS. 1 and 2. Hsc70 mRNA and 18S rRNA (as an internal reference) were measured by Direct Protect RNase protection as described under General Comments. […] P values (shown above respective error bars) were determined by 1-way ANOVA in comparison with control.
FIG. 6 is explained in more detail as follows. […] P values (shown above respective error bars) were determined by 1-way ANOVA in comparison with control.

For data set [5] the following is noted: growth medium, 37° C., 5% CO2; previously determined (ref. 30); cited from earlier work.
In data set [6] the test system is Hsc70. The experiment in a line: Hsc70 immunoblot of IB3-1 whole cell lysates. Format: cell-based, human. Conditions: IB3-1 cells. On the procedure: as §1
Where [7] appears, read: increasing concentrations of 4-PBA.

Take `O=C(O)CCCc1ccccc1` [4-PBA, 4-phenylbutyric acid]: the “expression of Hsp90” value in data set [1] is given as “did not affect”. For the same compound, the “4-PBA concentration leading to increased overall expression and appearance of mature CFTR” value in data set [2] is listed as more than 0.1 mM. Moreover, the “4-PBA concentration at which CFTR was undetectable in the immunoprecipitates” value in data set [3] is given as more than 1 mM. In data set [3] (setting [7]), the “immunoprecipitable Hsc70” value was “decreased amounts” and the “immunoreactive CFTR recovered in complex with Hsc70” value is “less immunoreactive CFTR was recovered”. Further, the “steady-state Hsc70 mRNA levels” value in data set [4] (4-PBA treatment, relative to 18S rRNA) is given as “concentration-dependent decrease”. Moreover, the “maximum decrease of Hsc70 mRNA, of control expression” value in data set [4] (continuous exposure to 5 mM 4-PBA) is approximately 50%. In addition, the “time for which a constant concentration is maintained under culture conditions” value in data set [5] is given as “at least 2 days”. In data set [6] (4-PBA 2 days, densitometry), the “decrease in Hsc70 immunoreactivity” value was approximately 50%. For the same compound, the “total Hsc70 immunoreactivity in whole cell lysates” value in data set [6] (increasing concentrations of 4-PBA, 2 days) is “declined in a dose-dependent fashion”.
